Data: publication PMC3885247 (Journal of medicinal chemistry, 2008)

Key:
[1] = molecular target: T1, pcDHFR (Pneumocystis carinii, UniProt P16184); details: previously reported quinazolines; cited from earlier work
T1 sequence (P16184 1-206): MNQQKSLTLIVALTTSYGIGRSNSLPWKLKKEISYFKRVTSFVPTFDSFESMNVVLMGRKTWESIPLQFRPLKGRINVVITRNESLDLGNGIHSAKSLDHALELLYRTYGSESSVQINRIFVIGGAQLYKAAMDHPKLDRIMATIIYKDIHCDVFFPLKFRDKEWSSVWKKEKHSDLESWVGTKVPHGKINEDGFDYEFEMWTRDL

[2] = molecular target: T2, tgDHFR (Toxoplasma gondii, UniProt Q07422); details: previously reported quinazolines; cited from earlier work
T2 sequence (Q07422 1-610): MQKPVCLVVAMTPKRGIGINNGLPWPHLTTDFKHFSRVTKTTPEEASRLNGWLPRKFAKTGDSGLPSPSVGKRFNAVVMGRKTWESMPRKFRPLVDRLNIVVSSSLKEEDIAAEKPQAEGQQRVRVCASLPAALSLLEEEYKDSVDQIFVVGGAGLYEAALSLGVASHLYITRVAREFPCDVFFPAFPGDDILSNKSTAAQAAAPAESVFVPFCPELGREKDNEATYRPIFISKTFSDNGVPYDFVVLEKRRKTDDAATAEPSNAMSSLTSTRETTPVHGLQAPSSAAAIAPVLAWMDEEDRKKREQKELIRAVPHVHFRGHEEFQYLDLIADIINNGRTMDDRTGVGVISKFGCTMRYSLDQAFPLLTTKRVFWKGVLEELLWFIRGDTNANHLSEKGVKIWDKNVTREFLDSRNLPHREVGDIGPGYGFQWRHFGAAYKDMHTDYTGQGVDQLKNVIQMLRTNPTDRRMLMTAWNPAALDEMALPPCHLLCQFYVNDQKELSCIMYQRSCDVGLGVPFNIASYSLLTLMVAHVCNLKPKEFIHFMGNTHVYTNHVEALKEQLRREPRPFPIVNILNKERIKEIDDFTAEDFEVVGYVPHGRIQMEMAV

[3] = molecular target: T3, rlDHFR (Rattus norvegicus, UniProt Q920D2); assay: Inhibition of rat liver DHFR; assay type: biochemical
T3 sequence (Q920D2 1-187): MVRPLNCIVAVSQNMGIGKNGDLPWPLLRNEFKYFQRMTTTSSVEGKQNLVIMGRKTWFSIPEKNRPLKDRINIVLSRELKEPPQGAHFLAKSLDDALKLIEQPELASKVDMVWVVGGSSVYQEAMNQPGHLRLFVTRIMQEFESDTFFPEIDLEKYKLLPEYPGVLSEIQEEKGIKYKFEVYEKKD

[4] = molecular target: T4, maDHFR (Mycobacterium avium, UniProt O30463); assay: Inhibition of M. avium DHFR; assay type: biochemical
T4 sequence (O30463 1-181): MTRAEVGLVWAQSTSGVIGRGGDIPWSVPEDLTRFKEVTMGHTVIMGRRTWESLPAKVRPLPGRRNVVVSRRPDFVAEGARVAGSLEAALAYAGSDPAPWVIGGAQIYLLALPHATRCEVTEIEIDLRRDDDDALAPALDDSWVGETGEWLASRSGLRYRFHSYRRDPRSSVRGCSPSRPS

[5] = molecular target: T2, tgDHFR; assay: biochemical
[6] = molecular target: T1, pcDHFR; assay: Inhibition of P. carinii DHFR; assay type: biochemical

COc1ccc(OC)c(CNc2ccc3nc(N)nc(N)c3c2)c1 [Compound 3]
Selectivity ratio rl/pc [1]: 0.2 | Selectivity ratio rl/tg [2]: 7

COc1ccc(OC)c(CN(CC2CC2)c2ccc3nc(N)nc(N)c3c2)c1 [Compound 12, 2,4-Diamino-6-[N-(2,5-dimethoxybenzyl)-N-cyclopropylmethylamino]quinazoline]
IC50 [3]: 9.6 nM | IC50 [4]: 16 nM | Fold decrease in potency against maDHFR compared to 10 ([4]; comparator 10): 5 fold | IC50 [5]: 7.3 nM | Selectivity ratio rl/tg (IC50 rlDHFR/IC50 tgDHFR) [5]: 1.3 | IC50 [6]: 25 nM | Selectivity ratio rl/pc (IC50 rlDHFR/IC50 pcDHFR) [6]: 0.4
